The subject of assay [1] is WBC. Put plainly: WBC recovery rate after centrifugation (cell stabilization, Example 5). To be noted: 300×g; for WBC recovery rate after centrifugation at different points of time, dependence on concentration: 0.35 nmol molecule A, 100 nmol and 0.5 nmol molecule B. The assay is classed as cell-based. The protocol: A) WBC Recovery Rate after Centrifugation and Cell Immobilization Using Different Molecules
Centrifugation characteristics: 10 min, 300×g.
B) WBC Recovery Rate after Centrifugation Using Different Compounds—Different Points of Time
Centrifugation characteristics: 10 min, 300×g. A: Choleseryl-TEG-Cholesteryl-TEG-(SpacerC18)7-Fluos-Biotin-TEG.
C) WBC Recovery Rate after Centrifugation—Different Experimenters
Centrifugation characteristics: 10 min, 300×g. Molecule: Cholesteryl-TEG-Cholesteryl-TEG-(SpacerC18)7-Fluos-Biotin-TEG.
D) WBC Recovery Rate after Centrifugation—Different Points of Time and Centrifugation Settings
Centrifugation characteristics: 20 min, 300×g.

The subject of assay [2] is WBCs. Put plainly: Immobilization of cells: recovery rate of cells on SA (streptavidin) plate or untreated plate (Example 3). The format is cell-based. As to the method: The following applies for modular description of the compounds below: X=hydrophobic moiety, […]=fluorescein In the following experiment, the recovery rate of cells was determined.
The subject of assay [3] is Epithelial cells. Put plainly: Labelling of cells using compounds (staining/uptake). The format is cell-based. An excerpt: (§1) 2. Labelling of Cells Using Compounds Useful in Methods of the Invention
The subject of assay [4] is white blood cells (WBCs). The protocol:
In particular, the performance of a single cholesterol-molecule and different dual-linker molecules (i.e. containing two hydrophobic moieties) was tested. In detail, immobilization of white blood cells (WBCs) on a Streptavidin-coated surface using different linker molecules was tested on a 12-well plate: 300 000 WBCs/well. This was followed by the measurement of the cell recovery rate after immobilization and washing of the cells using the Cellavista instrument (10× Nuclei Operator s9s5).

Assay [5] deals with WBCs. Put plainly: Labelling of cells using compounds (staining/uptake). The format is cell-based.
From the text: as §1

[6] abbreviates: Sample 1, first block (concentration not given), 300 000 WBCs/well.
Setting [7] is: Sample 1, compound concentration: 1 nmol/10e6 WBCs.
Where [8] appears, read: Sample 1, compound concentration: 1 nmol/10e6 WBCs, 300 000 WBCs/well.
The mark [9] stands for this setting: Sample 2, compound concentration: 100 pmol/10e6 WBCs.
Setting [10] is: Sample 2, compound concentration: 100 pmol/10e6 WBCs, 300 000 WBCs/well.
Where [11] appears, read: Sample 2, compound concentration: 1 nmol/10e6 WBCs.
Setting [12] is: Sample 2, compound concentration: 1 nmol/10e6 WBCs, 300 000 WBCs/well.
Setting [13] is: cells treated with compound, streptavidin plate, repeated experiments.

“And” between values parts separate entries of the source, which are not always exact repeats. Identical values can stand only once. Like-named read-outs stand apart in the source and are kept apart here.

Take Biotin-PEG-Lysin-(C18)2 [HH1750]: the “WBC recovery rate after centrifugation, dependence on concentration” value in assay [1] (Centrifugation: 10 min) was “The higher the concentration of the molecule, the higher the cell recovery rate after centrifugation”.
“5′-Myristic acid-SpacerC12-Myristic acid-(SpacerC18)7-Fluos-BiotinTEG-3 [29.891219]”: the “Recovery Rate” value in assay [2] (WBCs, 350 pmol/10e6 cells) was 46.3% and 39.4% and 53.7% and 56.6%.
As to `CCCCCCCC/C=C\CCCCCCCC(=O)OC[C@H](COP(=O)([O-])OCCNC(=O)CCCCCNC(=O)CCCC[C@@H]1SC[C@@H]2NC(=O)N[C@@H]21)OC(=O)CCCCCCC/C=C\CCCCCCCC.[Na+]`, the “Recovery Rate” value in assay [2] (10 pmol/10e6 cells) was 66.30% and 74.40%; in assay [2] (500 pmol/10e6 cells), 80.16% and 95.94%; in assay [2] (1 nmol/10e6 cells), 95.80% and 101.76%; in assay [2] (10 nmol/10e6 cells), 89.19% and 105.12%.
Turning to `CCCCCCCCCCCCCCCCCCCCCCN1/C(=C/C=C/c2oc3ccccc3[n+]2CCC)Oc2ccccc21.[I-]` [PKH2], the “Labelling (staining/uptake) of cells” value in assay [3] is given as “✓ not all”.
In the case of “5′-CholesterylTEG-SpacerC18-CholesterylTEG-(SpacerC18)7-Fluos-BiotinTEG-3′ [29.891225]”, the “Recovery Rate” value in assay [2] (WBCs, 350 pmol/10e6 cells) was 38.8% and 46.5%.
With “5′-(Cholesteryl-TEG)2-PEG2000-Fluos-Biotin_TEG-3′ INVERS [29.891250]”, the results for the “Recovery Rate” value in assay [2] (100 pmol/10e6 cells) and in assay [2] (1 nmol/10e6 cells) were 48.66% and 81.29%, respectively.
In the case of “5′-(Cholesterol-TEG)1-Doubler-dT-Biotin-3′ [29.891272]”, the Recovery Rate in assay [4] (setting [6]) is 56.49%; in assay [4] (setting [7]), 72.13%; in assay [4] (setting [9]), 62.11%; in assay [4] (setting [11]), 82.47%; in assay [2] (10 pmol/10e6 cells), 65.03%; in assay [2] (100 pmol/10e6 cells), 83.08% and 56.49% and 62.11% and 82.01%. Moreover, the “Recovery Rate” value in assay [2] (1 nmol/10e6 cells) was 87.93% and 72.13% and 82.47%; in assay [2] (10 nmol/10e6 cells), “Cells lysed”. Moreover, the “cells counted per well” value in assay [4] (setting [6]) was 147132 and 179643 and 181620; in assay [4] (setting [8]), 199973 and 220701 and 228481; in assay [4] (setting [10]), 161504 and 201424 and 196021; in assay [4] (setting [12]) it was 241232 and 254894 and 246129. The “Mean (cells counted per well)” value in assay [4] (setting [9]) stood at 186316.33; in assay [4] (setting [11]), 247418.33. In assay [4] (conclusion of Example 4), the “cell immobilization characteristics, mono linker vs dual linker” value is recorded as “shows similar cell immobilization characteristics compared dual linker molecules”.
For the molecule “5′-Myristic acid-Myristic acid-SpacerC18-Fluos-BiotinTEG-3′ [29.891213]”, the “Recovery Rate” value in assay [2] (WBCs, 350 pmol/10e6 cells) is 67.4% and 61.9% and 80.2% and 70.4%. Moreover, in assay [2] (setting [13]), the “Recovery rate treated cells (SA-plate)” value was determined as 67.4%.
Take “5′-Myristic acid-Myristic acid-Myristic acid-(SpacerC18)7-Fluos-BiotinTEG-3′ [29.891221]”: the “Recovery Rate” value in assay [2] (WBCs, 350 pmol/10e6 cells) is 46.0% and 79.4% and 68.8% and 76.5% and 83.4%.
Turning to “5′-Myristic acid-SpacerC9-Myristic acid-PEG2000-Fluos-BiotinTEG-3′ [29.891197]”, the staining result in assay [5] (remark in the Recovery Rate column) is “not good”.
On to “5′-Myristic acid-Myristic acid-PEG2000-Fluos-BiotinTEG-3′ [29.891194]”, for which, in assay [2] (WBCs, 350 pmol/10e6 cells), the “Recovery Rate” value is recorded as 21-26%.
Regarding “5′-CholesterylTEG-SpacerC12-CholesterylTEG-(SpacerC18)7-Fluos-BiotinTEG-3 [29.891224]”, the “Recovery Rate” value in assay [2] (WBCs, 350 pmol/10e6 cells) was 119.4% and 60.6% and 64.4% and 70.3% and 78.1%.
For the molecule “Biotin-PEG-Lysin-(C18)2 [listing 1 of 2 here]”, in assay [1] (Centrifugation: 10 min), the “enables cell immobilization within” value was ≤ 3.5 h and the “WBC recovery rate after centrifugation at different points of time, dependence on concentration” value is reported as “The higher the molecule concentration, the higher the cell recovery rate after centrifugation”.
Consider Biotin-PEG-Lys-(C14)2 [15.260268], for which the Recovery Rate in assay [2] (1.77 nmol/10e6 Cells) was 85.72; in assay [2] (WBCs, concentration not given), 52-86%. Besides, the entries for the “Recovery rate treated cells (SA-plate)” value in assay [2] (2.16 μg/2 × 10e6 WBCs), in assay [2] (21.6 μg/2 × 10e6 WBCs) and in assay [2] (216 μg/2 × 10e6 WBCs) were 39.6%, 46.7% and 51.8%, respectively.
Consider `CCCCCCCCCCCCCCCC(=O)OC[C@H](COP(=O)([O-])OCCNC(=O)CCCCCNC(=O)CCCC[C@@H]1SC[C@@H]2NC(=O)N[C@@H]21)OC(=O)CCCCCCCCCCCCCCC.[Na+]`, for which the “Recovery Rate” value in assay [2] (10 pmol/10e6 cells) was 54.30% and 45.40%; in assay [2] (100 pmol/10e6 cells), 72.20% and 86.10%; in assay [2] (300 pmol/10e6 cells) it was 51.80% and 55.90% and 52.60% and 73.07% and 61.27% and 71.40%; in assay [2] (1 nmol/10e6 cells), 84.90% and 89.30%.
Take Biotin-PEG-Lysin-(C18)2 [HH1755]: the “WBC recovery rate after centrifugation, dependence on concentration” value in assay [1] (Centrifugation: 10 min) is “The higher the concentration of the molecule, the higher the cell recovery rate after centrifugation”.
In the case of “Biotin-PEG-Lysin-(C18)2 [listing 2 of 2 here]”, the “Recovery Rate” value was 4.8% in assay [2] (10 pmol/10e6 cells); 6.8% in assay [2] (100 pmol/10e6 cells); 21.8% and 29.6% in assay [2] (1 nmol/10e6 cells); 60.6% and 43.0% and 68.5% in assay [2] (10 nmol/10e6 cells); 15.0% in assay [2] (WBCs, 350 pmol/10e6 cells, 0.00003% Tween22); 10.0% in assay [2] (WBCs, 350 pmol/10e6 cells, 0.0001% Tween21). Also, the “Recovery Rate” value in assay [2] (WBCs, 350 pmol/10e6 cells, 0.0003% Tween20) is 10.0%; in assay [2] (WBCs, 350 pmol/10e6 cells, 0.001% Tween20), 9.0%; in assay [2] (WBCs, 0.5 nmol/10e6 cells) it was 25.0% and 27.0% and 38.0%; in assay [2] (WBCs, 50 nmol/10e6 cells), 69.0%.
On to Biotin-PEG-Lysin-(C18)2 [HH1749], for which, in assay [1] (Centrifugation: 10 min), the “WBC recovery rate after centrifugation, dependence on concentration” value was “The higher the concentration of the molecule, the higher the cell recovery rate after centrifugation”.
Take “5′-Myristic acid-Myristic acid-(SpacerC18)7-Fluos-BiotinTEG-3′ [29.891214]”: the “Recovery Rate” value in assay [2] (WBCs, 350 pmol/10e6 cells) is 78.9% and 68.7% and 90.5% and 81.1% and 65.9% and 84.9% and 85.1%. In addition, the “Recovery rate treated cells (SA-plate)” value in assay [2] (setting [13]) was found to be 78.9%.
“5′-Myristic acid-CholesterylTEG-(SpacerC18)7-Fluos-BiotinTEG-3′ [29.891227]”: the “Recovery Rate” value in assay [2] (WBCs, 350 pmol/10e6 cells) was 64.9% and 69.6% and 77.8%.
On the same count and under the same terms, to “5′-Myristic acid-SpacerC9-Myristic acid-(SpacerC18)7-Fluos-BiotinTEG-3′ [29.891218]” belongs 50.3% and 55.1%.
Turning to “Sulfo-JA133-phenylboronic acid [15.000078]”, the “Labelling (staining/uptake) of cells” value is on record as “✓ not all” in assay [5] and “✓” in assay [3].
In the case of “5′-(Cholesteryl-TEG)2-Spacer C12-dT-Biotin_TEG-3′ INVERS [29.891253]”, the Recovery Rate in assay [4] (setting [6]) was 41.44%; in assay [4] (setting [7]), 72.13%; in assay [4] (setting [9]), 62.59%; in assay [4] (setting [11]), 79.02%; in assay [2] (10 pmol/10e6 cells), 47.42%; in assay [2] (100 pmol/10e6 cells) it was 73.46% and 41.44% and 62.59% and 71.41%. For the same molecule, the “Recovery Rate” value in assay [2] (1 nmol/10e6 cells) is 96.84% and 72.13% and 79.02% and 86.21%; in assay [2] (10 nmol/10e6 cells), 102.36%. In addition, the “cells counted per well” value in assay [4] (setting [6]) was 105061 and 128195 and 139678; in assay [4] (setting [8]), 218861 and 221471 and 208802; in assay [4] (setting [10]) it was 178919 and 197130 and 187224; in assay [4] (setting [12]), 239105 and 240632 and 231420. Moreover, the “Mean (cells counted per well)” value in assay [4] (setting [9]) is recorded as 187757.67; in assay [4] (setting [11]), 237052.33.
“5′-Myristic acid-SpacerC18-Myristic acid-(SpacerC18)7-Fluos-BiotinTEG-3′ [29.891220]”: in assay [2] (WBCs, 350 pmol/10e6 cells), the “Recovery Rate” value was 35.8% and 41.4% and 55.9% and 63.5%.
Regarding “5′-CholesterylTEG-CholesterylTEG-(SpacerC18)7-Fluos-BiotinTEG-3′ [29.891222]”, in assay [1] (Centrifugation: 10 min), the “WBC recovery rate after centrifugation, different experimenters, dependence on concentration” value is on record as “the higher the molecule concentration, the higher the cell recovery rate after centrifugation” and the “WBC recovery rate after centrifugation at different points of time, dependence on concentration” value was “The higher the molecule concentration, the higher the cell recovery rate after centrifugation”. Besides, the “cell stabilization, dependence on experimenter” value in assay [1] (Experimenters 1, 2 and 3, 10 min) is given as “cell stabilization is independent on the experimenter”.
Consider “5′-CholesterylTEG-CholesterylTEG-PEG2000-BiotinTEG-3′ [29.891137]”, for which the “Recovery Rate” value in assay [2] (WBCs, concentration not given) was 77.1%.

The values are drawn from patent publication US11965886B2, “Method of immobilizing a cell on a support using compounds comprising a polyethylene glycol moiety” (Roche Diagnostics Operations, Inc., priority 2013, dated 2024).
